# Assays:
# Assay type in all cases: in vivo
# [1] = system: blackgrass (Alopecurus myosuroides); assay: Test A postemergence application, visual injury rating 0-100
# How it was run: (§1)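 Visual injury ratings (0, no effect; 100, complete control) were assigned relative to untreated plants 10 days after treatment. Test chemicals, formulated with a surfactant-containing non-phytotoxic solvent, were applied in loam-sand soil either as a directed soil spray before emergence or to emerged plants, and plants were kept in a greenhouse.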
# [2] = system: galium (catchweed bedstraw, Galium aparine); assay: as above
# How it was run: as §1
# [3] = system: green foxtail (Setaria viridis); assay: as above
# How it was run: as §1
# [4] = system: ryegrass, Italian (italian ryegrass, Lolium multiflorum); assay: as above
# How it was run: as §1
# [5] = system: wheat (Triticum aestivum); assay: as above
# How it was run: as §1
# soybean (Glycine max) [6] = assay: as above
# How it was run: as §1
# [7] = system: horseweed (Erigeron canadensis); assay: as above
# How it was run: as §1
# [8] = system: ragweed (common ragweed, Ambrosia artemisiifolia); assay: as above
# How it was run: as §1
# [9] = system: oat, wild (wild oat, Avena fatua); assay: as above
# How it was run: as §1
# corn (Zea mays) [10] = assay: as above
# How it was run: as §1
# [11] = system: barnyardgrass (Echinochloa crus-galli); assay: as above
# How it was run: as §1
# kochia (Bassia scoparia) [12] = assay: as above
# How it was run: as §1
# [13] = system: palmer (palmer amaranth, palmer pigweed, Amaranthus palmeri); assay: as above
# How it was run: as §1
# [14] = system: sedge, umbrella (small-flower umbrella sedge, Cyperus difformis); assay: Test B flooded paddy test, visual plant response rating 0-100; settings: 250 g ai/ha, Flood, applied to paddy water, evaluated after 13 days
# How it was run: (§2)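 Visual evaluation after 13 days. Water-applied treatment, 3 cm flood depth held constant, plants at 2-leaf stage at treatment.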
# rice (Oryza sativa) = assay: as above; settings: 250 g ai/ha, Flood, applied to paddy water, evaluated after 13 days
# How it was run: as §2
# [15] = system: barnyardgrass (Echinochloa crusgalli); assay: as above; settings: 250 g ai/ha, Flood, applied to paddy water, evaluated after 13 days
# How it was run: as §2
# [16] = system: ducksalad (Heteranthera limosa); assay: as above; settings: 250 g ai/ha, Flood, applied to paddy water, evaluated after 13 days
# How it was run: as §2
# [17] = system: blackgrass (Alopecurus myosuroides); assay: Test A preemergence soil spray, visual injury rating 0-100; settings: 10 days
# How it was run: as §1
# [18] = system: green foxtail (Setaria viridis); assay: as above; settings: 10 days
# How it was run: as §1
# [19] = system: ryegrass, Italian (italian ryegrass, Lolium multiflorum); assay: as above; settings: 10 days
# How it was run: as §1
# [20] = system: wheat (Triticum aestivum); assay: as above; settings: 10 days
# How it was run: as §1
# soybean (Glycine max) [21] = assay: as above; settings: 10 days
# How it was run: as §1
# [22] = system: ragweed (common ragweed, Ambrosia artemisiifolia); assay: as above; settings: 10 days
# How it was run: as §1
# [23] = system: oat, wild (wild oat, Avena fatua); assay: as above; settings: 10 days
# How it was run: as §1
# corn (Zea mays) [24] = assay: as above; settings: 16 g ai/ha, 0 to 100 scale, 10 days
# How it was run: as §1
# [25] = system: barnyardgrass (Echinochloa crus-galli); assay: as above; settings: 10 days
# How it was run: as §1
# kochia (Bassia scoparia) [26] = assay: as above; settings: 10 days
# How it was run: as §1
# [27] = system: palmer (palmer amaranth, palmer pigweed, Amaranthus palmeri); assay: as above; settings: 62 g ai/ha, 10 days, 0 = no effect, 100 = complete control
# How it was run: as §1
# [28] = 62 g ai/ha, postemergence, 10 days, 0 = no effect, 100 = complete control
# [29] = Postemergence, 16 g ai/ha, greenhouse 10 days, 0 no effect, 100 complete control
# [30] = 62 g ai/ha, 0 = no effect, 100 = complete control
smiles,measurement,setting,value
CCOC(=O)C1=CCC(NC(=O)C2(C)CN(c3cc(F)cc(Cl)c3)C(=O)O2)C1 (centres unmarked) [Compound 133],Blackgrass plant response rating (0-100),[1]; [28],90
same,Blackgrass plant response rating (0 to 100 scale),[1]; [29],70
same,Galium plant response rating (0-100),[2]; [28],70
same,Galium plant response rating (0 to 100 scale),[2]; [29],60
same,"Foxtail, Green plant response rating (0-100)",[3]; [28],90
same,"Foxtail, Green plant response rating (0 to 100 scale)",[3]; [29],90
same,"Ryegrass, Italian plant response rating (0-100)",[4]; [28],90
same,"Ryegrass, Italian plant response rating (0 to 100 scale)",[4]; [29],60
same,Wheat plant response rating (0-100),[5]; [28],90
same,Wheat plant response rating (0 to 100 scale),[5]; [29],80
same,Soybean plant response rating (0-100),soybean (Glycine max) [6]; [28],70
same,Soybean plant response rating (0 to 100 scale),soybean (Glycine max) [6]; [29],60
same,Horseweed plant response rating (0-100),[7]; [28],80
same,Horseweed plant response rating (0 to 100 scale),[7]; [29],0
same,Ragweed plant response rating (0-100),[8]; [28],70
same,Ragweed plant response rating (0 to 100 scale),[8]; [29],30
same,"Oat, Wild plant response rating (0-100)",[9]; [28],70
same,"Oat, Wild plant response rating (0 to 100 scale)",[9]; [29],40
same,Corn plant response rating (0-100),corn (Zea mays) [10]; [28],100
same,Corn plant response rating (0 to 100 scale),corn (Zea mays) [10]; [29],100
same,Barnyardgrass plant response rating (0-100),[11]; [28],100
same,Barnyardgrass plant response rating (0 to 100 scale),[11]; [29],100
same,Kochia plant response rating (0-100),kochia (Bassia scoparia) [12]; [28],90
same,Kochia plant response rating (0 to 100 scale),kochia (Bassia scoparia) [12]; [29],80
same,"Pigweed, Palmer plant response rating (0-100)",[13]; [28],90
same,"Pigweed, Palmer plant response rating (0 to 100 scale)",[13]; [29],90
same,"Plant response rating, Sedge, Umbrella (0 to 100 scale, 0 is no effect and 100 is complete control)",[14],98
same,"Plant response rating, Rice (0 to 100 scale, 0 is no effect and 100 is complete control)",rice (Oryza sativa),85
same,"Plant response rating, Barnyardgrass (0 to 100 scale, 0 is no effect and 100 is complete control)",[15],95
same,"Plant response rating, Ducksalad (0 to 100 scale, 0 is no effect and 100 is complete control)",[16],85
same,Blackgrass plant response rating,"[17]; 16 g ai/ha, 0 to 100 scale",0
same,Blackgrass plant response rating (0-100),[17]; [30],20
same,"Foxtail, Green plant response rating","[18]; 16 g ai/ha, 0 to 100 scale",0
same,"Foxtail, Green plant response rating (0-100)",[18]; [30],90
same,"Ryegrass, Italian plant response rating","[19]; 16 g ai/ha, 0 to 100 scale",10
same,"Ryegrass, Italian plant response rating (0-100)",[19]; [30],80
same,Wheat plant response rating,"[20]; 16 g ai/ha, 0 to 100 scale",0
same,Wheat plant response rating (0-100),[20]; [30],90
same,Soybean plant response rating,"soybean (Glycine max) [21]; 16 g ai/ha, 0 to 100 scale",0
same,Soybean plant response rating (0-100),soybean (Glycine max) [21]; [30],0
same,Ragweed plant response rating,"[22]; 16 g ai/ha, 0 to 100 scale",0
same,Ragweed plant response rating (0-100),[22]; [30],0
same,"Oat, Wild plant response rating","[23]; 16 g ai/ha, 0 to 100 scale",0
same,"Oat, Wild plant response rating (0-100)",[23]; [30],0
same,Corn plant response rating,corn (Zea mays) [24],0
same,Barnyardgrass plant response rating,"[25]; 16 g ai/ha, 0 to 100 scale",0
same,Barnyardgrass plant response rating (0-100),[25]; [30],80
same,Kochia plant response rating,"kochia (Bassia scoparia) [26]; 16 g ai/ha, 0 to 100 scale",0
same,Kochia plant response rating (0-100),kochia (Bassia scoparia) [26]; [30],20
same,"Pigweed, Palmer plant response rating (0-100)",[27],90

# Source: patent US20260285850A1, “SUBSTITUTED OXAZOLIDINONES AND IMIDAZOLINONES AS HERBICIDES” (FMC CORPORATION, priority 2023, published 2026)
